Data set [1] is described as follows: AUC (0 to infinity) in Balb/c mouse at 50 mg/kg, iv by mass spectrometry. In kind it is ADME, organism-based. Further details: route intravenous, time infinity, dose 50 mg/kg. The settings on record: in vivo.
Data set [2] is described as follows: AUC (0 to infinity) in Balb/c mouse at 50 mg/kg, po by mass spectrometry. Type of data set: ADME, organism-based. Also on record: route oral, time infinity, dose 50 mg/kg. The settings on record: in vivo.
Data set [3] can be described thus: AUC (0 to infinity) in Balb/c mouse at 150 mg/kg, po by mass spectrometry. Further details: route oral, time infinity, dose 150 mg/kg. The note with it: in vivo. Type of data set: ADME, organism-based.
The nature of data set [4]: Tmax in Balb/c mouse at 50 mg/kg, po by mass spectrometry. In kind it is ADME, organism-based. The settings on record: in vivo.
Data set [5] can be described thus: Tmax in Balb/c mouse at 150 mg/kg, po by mass spectrometry. In kind it is ADME, organism-based. The settings on record: in vivo.
Data set [6] in a line: Cmax in Balb/c mouse at 50 mg/kg, po by mass spectrometry. Also on record: route oral, dose 50 mg/kg. Type of data set: ADME, organism-based. The settings on record: in vivo.
Data set [7] in a line: Cmax in Balb/c mouse at 150 mg/kg, po by mass spectrometry. The note with it: in vivo. In kind it is ADME, organism-based. Also on record: route oral, dose 150 mg/kg.
Data set [8] in a line: Clearance in Balb/c mouse at 50 mg/kg, iv by mass spectrometry. The note with it: in vivo. In kind it is ADME, organism-based.
Data set [9] in a line: Volume of distribution at steady state in Balb/c mouse at 50 mg/kg, iv by mass spectrometry. In kind it is ADME, organism-based. The settings on record: in vivo, read-out: Vdss.
Data set [10] is described as follows: Oral bioavailability in Balb/c mouse at 50 mg/kg by mass spectrometry. In kind it is ADME, organism-based. The settings on record: in vivo.
The nature of data set [11]: Oral bioavailability in Balb/c mouse at 150 mg/kg by mass spectrometry. The settings on record: in vivo. In kind it is ADME, organism-based.
Data set [12] in a line: physchem. The note with it: n-octanol/water, pH 7.4.
A short description of data set [13]: in vitro. The note with it: human, pooled liver microsomes. A general note: Liver microsomes are a subcellular fraction often used to study metabolism.
Data set [14] is described as follows: in vitro. The settings on record: mouse, liver microsomes.
Data set [15] in a line: in vitro. The note with it: rat, liver microsomes.

Some results are limits rather than exact numbers.

As for `O=C(CCCCCCn1cnc2c(N3CCOCC3)nc(-c3cccc(CO)c3)nc21)NO`, the total exposure AUC(0-inf) in data set [1] is 16.7 µM·h; in data set [2], 0.97 µM·h; in data set [3], 9.06 µM·h. The Tmax in data set [4] is 10.2 min; in [5] it was 30 min. Besides, the peak concentration (Cmax) stood at 3.9 µM in data set [6] and 10.1 µM in data set [7]. Besides, the clearance in data set [8] is 110 mL/min/kg. For the same molecule, the Vd in data set [9] was 3.06 L/kg. Besides, the bioavailability in [10] turned out to be 5.8%; in [11], 18.1%. In data set [12], the pH-dependent lipophilicity (logD) is 2.07.

For `Nc1ncc(-c2nc(N3CCOCC3)c3ncn(CCCCCCC(=O)NO)c3n2)cn1`, the half-life at 1 h, 5 µM in [13] was more than 60 min; in data set [14] it was more than 60 min; in [15], 35 min.

In turn, `COc1ccc(-c2nc(N3CCOCC3)c3sc(CN(C)c4ncc(C(=O)NO)cn4)cc3n2)cn1` [FIMEPINOSTAT] returned a logD in data set [12] of 3.07.

`O=C(CCCCCCC(=O)Nc1ccccc1)NO` [VORINOSTAT] came in with a logD in data set [12] of 1.05.

As usually defined, the AUC(0-inf) is the area under the concentration-time curve extrapolated to infinity. Usually Tmax stands for the time at which the peak concentration occurs. By Cmax is commonly meant the maximum level reached in the sampled fluid or tissue. For orientation: clearance means the rate of elimination divided by the concentration. Read a high clearance as efficient removal. By bioavailability is commonly meant the share of a dose that reaches the circulation, judged against a reference dose that is usually intravenous. Higher therefore signals good availability. One may read the logD as the decadic logarithm of the distribution of all forms, ionised or not, between an organic phase and buffer at a given pH. A low value points to lower lipophilicity. A word on the half-life: it is the time needed for the level to fall by half in the phase considered. A high value points to slow loss.
